Source: the NIST ThermoML archive (doi:10.1016/j.fluid.2011.06.011)

Test: xn = mol fraction of the nth substance listed
Details: Liquid; for speed of sound: Sing-around technique in a fixed-path interferometer; for mass density: Vibrating tube method

C=CC(C)(O)CCC=C(C)C (stereo not drawn) [3,7-dimethyl-1,6-octadien-3-ol] + CCO
Details | mass density, 313.15 K [kg/m3] | mass density, 328.15 K [kg/m3] | speed of sound, 313.15 K [m/s] | speed of sound, 328.15 K [m/s]
101 kPa, x1 = 0.0493 | – | – | – | 1070.8
101 kPa, x1 = 0.0506 | 784.31 | 770.91 | – | –
101 kPa, x1 = 0.0507 | – | – | 1122.4 | –
101 kPa, x1 = 0.0996 | – | – | 1142.3 | –
101 kPa, x1 = 0.1008 | 794.24 | 780.72 | – | 1095.1
101 kPa, x1 = 0.1969 | 808.41 | 795.22 | 1177.2 | 1125
101 kPa, x1 = 0.2884 | 818.41 | 805.21 | – | –
101 kPa, x1 = 0.2959 | – | – | 1200.7 | 1147.3
101 kPa, x1 = 0.3918 | – | – | 1218.2 | –
101 kPa, x1 = 0.3957 | 826.66 | 813.44 | – | 1163.9
101 kPa, x1 = 0.4803 | 831.36 | 818.17 | – | –
101 kPa, x1 = 0.4834 | – | – | – | 1173.9
101 kPa, x1 = 0.4854 | – | – | 1230.3 | –
101 kPa, x1 = 0.593 | 835.94 | 822.82 | 1240 | 1185.1
101 kPa, x1 = 0.6838 | 838.63 | 825.57 | 1247.1 | 1193.8
101 kPa, x1 = 0.7832 | – | – | 1252.8 | 1199
101 kPa, x1 = 0.8438 | 841.86 | 828.96 | – | –
101 kPa, x1 = 0.8633 | – | – | 1257 | 1203.2
101 kPa, x1 = 0.8941 | 842.75 | 829.77 | – | –
101 kPa, x1 = 0.9286 | 843.29 | 830.31 | 1259.5 | 1206.3
101 kPa, x1 = 1 | 844.29 | 831.31 | 1260.8 | 1207.6
20000 kPa, x1 = 0.0511 | 801 | 789.2 | – | –
20000 kPa, x1 = 0.1003 | 809.9 | 798.3 | – | –
20000 kPa, x1 = 0.1962 | 823 | 811.4 | – | –
20000 kPa, x1 = 0.2989 | 833.1 | 821.4 | – | –
20000 kPa, x1 = 0.3996 | 840 | 828.3 | – | –
20000 kPa, x1 = 0.5015 | 845.2 | 833.5 | – | –
20000 kPa, x1 = 0.5982 | 848.8 | 837.1 | – | –
20000 kPa, x1 = 0.6898 | 851.6 | 839.9 | – | –
20000 kPa, x1 = 0.7929 | 854.1 | 842.5 | – | –
20000 kPa, x1 = 0.8885 | 856 | 844.4 | – | –
20000 kPa, x1 = 0.9435 | 856.9 | 845.3 | – | –
20000 kPa, x1 = 1 | 857.6 | 846 | – | –
25000 kPa, x1 = 0.0511 | 804.8 | 793.4 | – | –
25000 kPa, x1 = 0.1003 | 813.7 | 802.2 | – | –
25000 kPa, x1 = 0.1962 | 826.7 | 815.2 | – | –
25000 kPa, x1 = 0.2989 | 836.6 | 825.1 | – | –
25000 kPa, x1 = 0.3996 | 843.5 | 831.9 | – | –
25000 kPa, x1 = 0.5015 | 848.6 | 837 | – | –
25000 kPa, x1 = 0.5982 | 852.2 | 840.6 | – | –
25000 kPa, x1 = 0.6898 | 854.9 | 843.4 | – | –
25000 kPa, x1 = 0.7929 | 857.4 | 845.9 | – | –
25000 kPa, x1 = 0.8885 | 859.3 | 847.8 | – | –
25000 kPa, x1 = 0.9435 | 860.1 | 848.6 | – | –
25000 kPa, x1 = 1 | 860.9 | 849.3 | – | –
30000 kPa, x1 = 0.0511 | 808.5 | 797.1 | – | –
30000 kPa, x1 = 0.1003 | 817.2 | 806 | – | –
30000 kPa, x1 = 0.1962 | 830.1 | 818.8 | – | –
30000 kPa, x1 = 0.2989 | 839.9 | 828.6 | – | –
30000 kPa, x1 = 0.3996 | 846.7 | 835.3 | – | –
30000 kPa, x1 = 0.5015 | 851.7 | 840.4 | – | –
30000 kPa, x1 = 0.5982 | 855.3 | 843.9 | – | –
30000 kPa, x1 = 0.6898 | 858 | 846.7 | – | –
30000 kPa, x1 = 0.7929 | 860.5 | 849.2 | – | –
30000 kPa, x1 = 0.8885 | 862.3 | 851 | – | –
30000 kPa, x1 = 0.9435 | 863.1 | 851.9 | – | –
30000 kPa, x1 = 1 | 863.9 | 852.6 | – | –
35000 kPa, x1 = 0.0511 | 812 | 800.7 | – | –
35000 kPa, x1 = 0.1003 | 820.6 | 809.6 | – | –
35000 kPa, x1 = 0.1962 | 833.3 | 822.3 | – | –
35000 kPa, x1 = 0.2989 | 843 | 832 | – | –
35000 kPa, x1 = 0.3996 | 849.6 | 838.6 | – | –
35000 kPa, x1 = 0.5015 | 854.7 | 843.6 | – | –
35000 kPa, x1 = 0.5982 | 858.3 | 847.2 | – | –
35000 kPa, x1 = 0.6898 | 861 | 849.9 | – | –
35000 kPa, x1 = 0.7929 | 863.4 | 852.3 | – | –
35000 kPa, x1 = 0.8885 | 865.3 | 854.2 | – | –
35000 kPa, x1 = 0.9435 | 866.1 | 855 | – | –
35000 kPa, x1 = 1 | 866.8 | 855.7 | – | –
40000 kPa, x1 = 0.0511 | 815.4 | 804.6 | – | –
40000 kPa, x1 = 0.1003 | 824 | 813.1 | – | –
40000 kPa, x1 = 0.1962 | 836.5 | 825.6 | – | –
40000 kPa, x1 = 0.2989 | 846.2 | 835.2 | – | –
40000 kPa, x1 = 0.3996 | 852.8 | 841.8 | – | –
40000 kPa, x1 = 0.5015 | 857.8 | 846.7 | – | –
40000 kPa, x1 = 0.5982 | 861.3 | 850.3 | – | –
40000 kPa, x1 = 0.6898 | 864 | 853 | – | –
40000 kPa, x1 = 0.7929 | 866.3 | 855.4 | – | –
40000 kPa, x1 = 0.8885 | 868.2 | 857.2 | – | –
40000 kPa, x1 = 0.9435 | 869 | 858.1 | – | –
40000 kPa, x1 = 1 | 869.7 | 858.8 | – | –
